Source: publication PMC4467156, “A new chemical inhibitor of angiogenesis and tumorigenesis that targets the VEGF signaling pathway upstream of Ras” (Oncotarget, 2015)

Columns and labels:
[1] = tested on: HMEC-GFP cells; assay: Scratch wound closure assay, HMEC-GFP; type: cell-based, human; conditions: Homo sapiens; wound closure after 24 h, 10% FCS, tested 3.125 μM to 100 μM
Text: In order to adapt the endothelial scratch wounding assay to the constraints of high throughput screening, we decided to use an endothelial cell line rather than primary cultures for the sake of reproducibility. Since angiogenesis is triggered by capillary endothelial cells, we selected the HMEC-1 cell line which consists of human dermal microvascular endothelial cells stably expressing SV40 […] antigen. We infected this cell line with GFP-encoding retroviral particles and selected one clone (thereafter named HMEC-GFP) that presented a high level of fluorescence and a strong proliferation rate (doubling time in the presence of serum: 22 h). We controlled that GFP expression was stable over at least 50 passages and that these cells still expressed endothelial markers such as VE-cadherin and CD31. In a standard assay, HMEC-GFP cells were grown until confluence in 96-well plates in the presence of serum, scratched with the multi-tip dispenser of the HTS automat, gently rinsed twice to eliminate detached cells and cell debris that could liberate inflammatory and potentially angiogenic cytokines, and incubated for 24 h in the presence of serum and the compounds to be tested. Each well was photographed at time 0 h (after wounding) and 24 h under a motorized epifluorescence microscope and the digitized images were analyzed using Image J to determine the percentage of wound closure (Figure 1A, 1B). Under our standard conditions, the closure rate was 72 ± 4% in the positive controls and 27 ± 4.% in the negative controls.
(§1) Confluent cell monolayers were wounded with a plastic pipet tip, washed gently with phosphate buffer saline (PBS) and treated with complete media containing molecules, as indicated. Cells were placed at 37°C into the incubator and photographed at indicated times. Quantitation of closure of the monolayer was performed using the NIH Image J program (http://rsbweb.nih.gov/ij/). Results are expressed as percentage of wound closure at t = 24 h as compared to the initial wound at t = 0 h.

[2] = Water solubility; type: physicochemical
[3] = tested on: 3T3-GFP cells; assay: Scratch wound closure assay, 3T3-GFP; type: cell-based; conditions: wound closure after 24 h, 10% FCS, tested 3.125 μM to 100 μM
Text: Using this assay, we screened the academic library of the University of Grenoble, which is composed of 1360 original molecules. Setting the threshold of significant responses at 75% of the maximal inhibition, we identified 80 inhibitory molecules. At this stage, we reasoned that molecules that would affect the cytoskeleton dynamics or the adhesion properties of any cell type would be positive in this assay but would not represent good candidates for further development. We thus decided to perform a secondary counterscreen of the first 80 selected compounds on GFP-expressing 3T3 fibroblasts (3T3-GFP) using the same scratch assay. We then focused our interest on the 5 molecules that inhibited more strongly HMEC-GFP than 3T3-GFP wound healing. […] We synthesized a series of 30 analogs and tested them at various concentrations both on HMEC-GFP and 3T3-GFP cells. […] Dansyl and naphthalimide aromatic groups, found in COB223 and COB227 respectively, appeared very efficient. The presence of the diaminomethyl group on dansyl is critical for the activity of COB223 as shown by the lower efficiency of COB235 (IC50 is 8 times higher than that of COB223). COB223 and COB227 contain a tert-butyloxycarbonyl function (BOC group) as a second hydrophobic group. Replacement of BOC by an amino group decreased the efficiency and the specificity (compare 05-102-L-B09 vs 05-06-L-D03, or COB227 vs COB228).
as §1

[4] = tested on: HUVEC cells; assay: 3H-thymidine incorporation, HUVEC; type: cell-based, human; conditions: mitomycin C-treated cells vs untreated, data not shown
Protocol: Cells were treated with molecules in complete medium. After 22 h, 1 μCi per well H^3 thymidine was added for 2 hours. Cells are then fixed by 10% trichloroacetic acid and harvested with 0.2N NaOH, 1% SDS. Radioactivity was measured in a beta counter.

[5] = tested on: HUVEC cells; assay: Scratch assay on HUVEC with or without mitomycin C; type: cell-based, human; conditions: HUVEC pretreated 24 h with 2 μg/mL mitomycin C
Protocol: as §1, with “0 h. […]” for “0 h.”
www.impactjournals.com/oncotarget/ Oncotarget, Supplementary Materials 2015 […]
Figure S1: Effect of COB223 on endothelial cell migration. (A) Scratch assay: Confluent HUVEC cells were pretreated for 24 h without (CTL) or with 2 μg/mL of mitomycin C before a wound was made in the cell monolayer. After wounding, cells were incubated at 37°C in the absence or the presence of 25 μM COB223. Wound closure was measured after 24 h and 48 h of incubation as described in Material and Methods. […]
(B) Boyden chamber assay: The technique is described in Material and Methods. We measured the passage of fluorescently labeled HUVEC cells through a 3 μm-porous membrane in response to fetal calf serum used as a chemo-attractant. […] The Figure represents the mean fluorescence ± SD of duplicate determinations after 24 h or 48h of incubation from two independent experiments. […]

SMILES | IC50 [1] | water solubility [2] | IC50 [3] | melting point | 3H-thymidine incorporation [4] | wound healing [5]
CN(C)c1cccc2c(S(=O)(=O)NCCOCCOCCNS(=O)(=O)c3cccc4c(N(C)C)cccc34)cccc12 [COB295, 5-Dimethylamino-N-(2-[2-{2-(5-(dimethylamino)naphthalene-1-sulfonamido)ethoxy}ethoxy]ethyl)naphthalene-1-sulfonamide] | 5 µM | lack of water solubility |  |  |  | 
CN(C)c1cccc2c(S(=O)(=O)NCCCNS(=O)(=O)c3cccc4c(N(C)C)cccc34)cccc12 [Compound 05-06-F11, 1,3-bis [5-(Dimethylamino)naphthalene-1-sulfonamido] diaminopropane] | 15 µM | lack of water solubility | 40 µM | 90 °C |  | 
CO[C@@]12[C@H](COC(N)=O)C3=C(C(=O)C(C)=C(N)C3=O)N1C[C@@H]1N[C@@H]12 [mitomycin C, reference compound] |  |  |  |  | complete inhibition | slowed down
